How the values were obtained:
K562 cells = assay: Cell cycle distribution / subG1 fraction, PI staining, flow cytometry; type: cell-based, human; details: K562, 2, 5, 10 nM, 48 h
Description: (§1) FIG. 5: Diverse human cell lines or cells were treated with different concentrations of Marbotinib (2 nM, 5 nM or 10 nM) or 5 μM STS for 48 h. Cells were harvested and stained with PI; cell cycle distribution were analyzed by flow cytometry. Cell cycle distribution and changes of subG1 fraction are illustrated. A) K562 cell line; B) NB4 cell line; C) PBMCs; n=2
(§2) After incubation, cells were harvested on ice and fixed in 80% ethanol at −20° C. for at least 1 h. Next, the cells were incubated with RNase for 30 min at room temperature, thereafter stained with propidium iodide (PI), and measured immediately with a flow cytometer. PI intercalates into DNA. In the different phases of the cell cycle, cells incorporate various amounts of PI. This allows the quantification of the cell cycle phases. The subG1 population represents the fraction of apoptotic/necrotic cells, which contains only fragmented DNA (DNA content <2N).
(§3) Additional experiments were performed to ensure the specificity of Marbotinib. Other human blood cell lines that carry no FLT3-ITD were stimulated with Marbotinib and analyzed. K562 cells derived from a patient with chronic myeloid leukemia. These cells are precursors from erythrocytes and carry a mutation of the tyrosine kinase BCR-ABL. The NB4 cells derived from a patient with acute promyelocytic leukemia and carry a mutation in the PML-RARA fusion protein (Noack, Mahendrarajah et al. 2016). Peripheral blood mononuclear cells (PBMCs) were freshly isolated from whole blood samples and used immediately for experiments. K562, NB4 and PBMCs were stimulated with different concentrations of Marbotinib for 48 h and cell cycle distribution was analyzed by flow cytometry. Marbotinib selectively leads to an increase of subG1 fraction only in FLT3-ITD positive cell lines (FIG. 3 and FIG. 4). Cell lines or cells that carry no FLT3-ITD are not affected by Marbotinib (FIG. 5).

NB4 cells = assay: as above; type: cell-based, human; details: NB4, 2, 5, 10 nM, 48 h
Description: as §1, §2, §3

PBMCs [1] = assay: as above; type: cell-based, human; details: PBMCs, 2, 5, 10 nM, 48 h
Description: as §1, §2, §3

MV4-11 cells [2] = assay: AnnexinV FITC/PI apoptosis staining, flow cytometry; type: cell-based, human; details: MV4-11, 2, 5, 10 nM, 24 h
Description: (§4) FIG. 6: […] Illustrated are the different populations of living cells, early apoptosis and late apoptosis/necrosis. To elucidate the apoptotic effects the population of cells in early apoptosis and late apoptosis/necrosis is represented in a separate diagram. A) MV4-11 cell line; B) PBMCs; n=1 To analyze apoptosis cells were treated as indicated and harvested on ice. Thereafter cells were stained with Annexin V FITC for 15 min on ice in the dark. After incubation time cells were stained with PI and measured immediately on flow cytometer. An Annexin V FITC and PI single stained sample was used for compensation and an unstained control sample was used to exclude autofluorescence. […] The subG1 fraction is only a hint for apoptosis therefore we stained MV4-11 cells and PBMCs for AnnexinV FITC/PI. This staining allows a differentiation between early apoptosis and late apoptosis. […] Treating FLT3-ITD positive cells with only 5 nM Marbotinib leads to a strong induction of apoptosis without affecting other cells or cell lines tested here.

PBMCs [3] = assay: as above; type: cell-based, human; details: PBMCs, 2, 5, 10 nM, 24 h
Description: as §4

Ba/F3 ITD D835Y mutant = assay: FLT3 signaling in Ba/F3 mutants, Western blot; type: cell-based, murine; details: 5 nM, 2 h
MV4-11 cells [4] = assay: Vitality assay, DAPI staining, flow cytometry; type: cell-based, human; details: 1, 5, 10, 100 nM, 48 h; especially at 1 nM, 5 nM and 10 nM
Description: FIG. 14: Results of vitality assay in which MV4-11 cells were exposed to FLT3-inhibitors Marbotinib, Marbotinib Carbamate and ACC220, at different concentrations, and cell viability staining was performed.
MV4-11 cells were treated with FLT3-inhibitors at different concentrations (1 nM, 5 nM, 10 nM, 100 nM) for 48 h. Viability staining was performed using life cell staining with DAPI. Samples were analysed using flow cytometry via FACS Canto; N=3.

FLT3-ITD in MV4-11 cells = assay: Dephosphorylation of FLT3-ITD and downstream targets over time, Western blot; type: cell-based, human; details: 5 nM; 2 h, 6 h, 16 h, 24 h
Text: Whole cell lysates were used for SDS-Page and Western blot. The blots show dephosporylation of FLT3-ITD and some of its downstream targets, cell cycle regulators, and DNA damage regulators after treatment with FLT3-inhibitors over time. GAPDH was used as loading control. Control is indicated as CTRL. Marbotinib is indicated as FLT3i3 and Marbotinib-Carbamat is indicated as FLT3i540.

Ba/F3 ITD N676K mutant = assay: FLT3 signaling in Ba/F3 mutants, Western blot; details: 5 nM, 2 h
[5] = test system: FLT3-ITD in MOLM-13 cells; assay: FLT3-ITD signaling, Western blot of cell lysates; details: MOLM-13, 5 nM

For `CC(C)(C)c1cc(NC(=O)Nc2ccc3oc(C(=O)c4cc5cc(O)ccc5[nH]4)cc3c2)no1` [Marbotinib, 1-(5-(tert-butyl)isoxazol-3-yl)-3-(2-(5-hydroxy-1H-indole-2-carbonyl)benzofuran-5-yl)urea], the “cell cycle distribution / subG1 fraction” value (K562 cells) was “not affected”, the “cell cycle distribution / subG1 fraction” value (NB4 cells) was “not affected” and the “cell cycle distribution / subG1 fraction” value (PBMCs [1]) was “not affected”. For the same compound, the “apoptosis (AnnexinV FITC/PI)” value (MV4-11 cells [2]) was “clear induction of apoptosis”, the “apoptosis (AnnexinV FITC/PI)” value (PBMCs [3]) was “no changes in basal apoptosis” and the “signal of p-FLT3 and p-STAT5” value (Ba/F3 ITD D835Y mutant) was “strong reduction”. The “cell viability, efficacy compared with AC220” value (MV4-11 cells [4]) was “more effective than compound AC220”, the “block of FLT3-ITD and its associated signaling cascades” value (FLT3-ITD in MV4-11 cells) was “effectively block” and the “signal of p-FLT3” value (Ba/F3 ITD N676K mutant) was “strong reduction”. For the same compound, the “signal of p-STAT5” value (Ba/F3 ITD N676K mutant) was “strong reduction”, the p-STAT5 [5] was “clear reduction” and the p-FLT3-ITD ([5]; 1 h) was “clearly reduces”.
